# Results published in patent US20250255809A1, “OPHTHALMIC PHARMACEUTICAL COMPOSITIONS OF ROFLUMILAST” (Iolyx Therapeutics, Inc., priority 2021, published 2025).
# Tests used:
# [1] = Impact of dry heat sterilization on particle size of bulk roflumilast API; type: physicochemical; conditions: bulk API dried at 137° C. for 20 hours
# Protocol: The impact of dry heat sterilization on roflumilast was assessed. Bulk API of roflumilast was dried at 137° C. for 20 hours. The particle size of the roflumilast was measured. FIG. 14 provides a particle size distribution plot for the bulk API after dry heat sterilization.
# [2] = as reported from the API manufacturer; cited from earlier work
smiles,measurement,setting,value
"O=C(Nc1c(Cl)cncc1Cl)c1ccc(OC(F)F)c(OCC2CC2)c1 [Roflumilast, N-(3,5-dichloropyrid-4-yl)-3-cyclopropylmethoxy-4-difluoromethoxybenzamide]",impact of dry heat sterilization on particle size distribution,[1],does not significantly impact the particle size distribution
same,D90 of the API,[2],approximately 10 μm
